# From patent EP4582418A1, “CRYSTALLINE FORM OF QUINOLINE DERIVATIVE INHIBITOR, PREPARATION METHOD THEREFOR AND USE THEREOF” (TransThera Sciences (Nanjing), Inc., priority 2022, dated 2024)
# Experiment: PK evaluation of crystal forms in rats
# Format: in vivo
# Procedure: The experimental crystal forms I and II of the methanesulfonate of the compound of formula (I) were each prepared into a suspension solution with 0.5% HPMC. The compound solutions were intragastrically administered to SD rats at a dose of 60 mg/kg. Blood samples were collected at time points of 15 min, 30 min, 1 h, 2 h, 4 h, 6 h, 8 h, 24 h, 48 h, 72 h, and 96 h after administration.
# The animals were fixed, with tails warmed in a water bath 10 min before each sampling time point. About 100 µL of blood was collected via the tail vein, and the blood samples were collected in anticoagulation tubes containing EDTA-K2. The blood samples were then centrifuged at 8,000 rpm for 6 min at 4 °C to give plasma samples. The plasma samples were prepared within 30 min after blood collection. The plasma samples were stored in a refrigerator at -80 °C before the test.
# The sample to be tested was taken out from the -80 °C refrigerator, naturally thawed at room temperature, and vortexed for 5 min. 20 µL of plasma sample was precisely pipetted to a 1.5 mL centrifuge tube, and 200 µL of internal standard working solution (a solution of tolbutamide in methanol, 100 ng/mL) was added. The resulting mixture was thoroughly mixed, vortexed for 5 min, and centrifuged at 12,000 rpm for 5 min. 50 µL of supernatant was precisely pipetted to a 96-well plate pre-loaded with 150 µL of water per well, and the resulting mixture was vortexed for 5 min and then used for LC-MS/MS analysis.
# The concentrations of the test samples were calculated by Analyst 1.6.3 from AB Sciex. Parameters such as mean, standard deviation, and coefficient of variation (excluding those output directly by Analyst 1.6.3) were calculated by Microsoft Excel. PK parameters were calculated by Pharsight Phoenix 6.1 software NCA (Tmax was in median).
compound,measurement,setting,value
"COc1cc2nccc(Oc3ccc(NC(=O)c4nn(C(C)C)cc(-c5ccc(F)cc5)c4=O)nc3)c2cc1OC [Crystal form I, N-(5-((6,7-dimethoxyquinolin-4-yl)oxy)pyridin-2-yl)-5-(4-fluorophenyl)-1-isopropyl-4-oxo-1,4-dihydropyridazine-3-carboxamide]",λ_z,"SD rats, PO 60 mg/kg, n = 3, suspension in 0.5% HPMC",0.018 h⁻¹
same,AUC(0-t),"SD, rat, plasma, po, 60 mg/kg, 0-96 h, n = 3",4020 µg·h/mL
same,Tmax,"SD, rat, plasma, po, 60 mg/kg, median, n = 3, read-out: Tmax",8 h
same,Cmax,"SD, rat, plasma, po, 60 mg/kg, n = 3, read-out: Cmax",69 µg/mL
same,tz1/2,"terminal half-life, SD rats, PO 60 mg/kg, n = 3",38.6 h
